Activity calls are given as the source filed them. How the calls were made is not given here.
Tested on: Broad 7084-01 inhibitor HTS, set 2
Assay: inhibitors in Broad screen 7084-01, set 2 (AID 977613);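 further: host cells are infected with parasite promastigotes that become internalized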

Row | SMILES | active concentration
1 | CC(C)C#Cc1ccc([C@H]2[C@@H](CO)N3C(=O)CN(C(=O)Cc4ccccc4)C[C@@H]23)cc1 | > 10 µM (inactive)
2 | N#C[C@@H]1[C@@H](c2ccccc2-c2ccccc2F)[C@@H](CO)N1C(=O)C1CCC1 | > 10 µM (inactive)
3 | COCC(=O)N1[C@H](C#N)[C@@H](c2ccccc2-c2cccc(C)c2)[C@@H]1CO | > 10 µM (inactive)
4 | CN1C(=O)c2cc(NC(=O)c3cnccn3)ccc2OC[C@@H]2O[C@H](CC(=O)NCC3CCCCC3)CC[C@H]21 | > 10 µM (inactive)
5 | O=C(NC1CCCCC1)N1CC2(C1)[C@H](c1ccccc1)[C@H](CO)N2CC1CCCC1 | > 10 µM (inactive)
6 | O=C(C[C@@H]1CC[C@@H]2[C@H](COC[C@@H](O)CN2C(=O)c2cccnc2)O1)NCc1ccccc1 | > 10 µM (inactive)
7 | COc1ccc2c3c([nH]c2c1)[C@H](CO)N(C)CC31CCN(S(=O)(=O)c2ccc(C)cc2)CC1 | > 10 µM (inactive)
8 | COc1cccc(NC(=O)Nc2ccc3c(c2)C(=O)N(C)[C@@H]2CC[C@@H](CC(=O)NCCc4ccccc4)O[C@@H]2CO3)c1 | > 10 µM (inactive)
9 | CN1[C@H](CO)[C@@H]2c3ccccc3N(C(=O)c3ccc(F)cc3)C[C@@H]21 | > 10 µM (inactive)
10 | CN1CCN(C(=O)C[C@H]2CC[C@@H]3[C@H](COC[C@@H](O)CN3C(=O)C3CC3)O2)CC1 | > 10 µM (inactive)
11 | O=C(C[C@H]1CC[C@H]2[C@@H](COC[C@@H](O)CN2C(=O)Nc2ccc(C(F)(F)F)cc2)O1)NCC1CC1 | > 10 µM (inactive)
12 | Cn1cnc(S(=O)(=O)N2C[C@H](O)COC[C@H]3O[C@@H](CC(=O)NC4CCCC4)CC[C@@H]32)c1 | > 10 µM (inactive)
13 | O=C1CNC[C@@H]2[C@H](c3ccc(-c4ccccc4F)cc3)[C@@H](CO)N12 | > 10 µM (inactive)
14 | COc1ccc2c3c([nH]c2c1)[C@@H](CO)N(C(=O)C1CCC1)CC31CN(C(=O)c2ccccn2)C1 | > 10 µM (inactive)
15 | O=C(Nc1cccc(F)c1)N1C[C@@H]2[C@H](c3ccccc31)[C@H](CO)N2C(=O)Cc1ccccn1 | > 10 µM (inactive)
16 | OC[C@@H]1[C@H](c2ccc(Br)cc2)[C@H]2CN(Cc3ccccn3)CCCCN12 | > 10 µM (inactive)
17 | O=C(c1cnccn1)N1CC(=O)N2[C@@H](CO)[C@H](c3ccc(C#CC4CC4)cc3)[C@@H]2C1 | > 10 µM (inactive)
18 | CN1c2ccc(-c3cccc(F)c3)cc2[C@@H]2[C@@H](CCN2C(=O)c2ccccc2F)[C@@H]1CO | > 10 µM (inactive)
19 | COCC(=O)N1CC[C@H]2[C@@H]1c1cc(-c3ccc(F)cc3)ccc1N(C)[C@H]2CO | > 10 µM (inactive)
20 | N#C[C@H]1[C@@H](c2ccccc2C2=CCCC2)[C@@H](CO)N1S(=O)(=O)c1ccccc1 | > 10 µM (inactive)
21 | O=C(c1cccnc1)N1C[C@H]2[C@@H](c3ccccc31)[C@@H](CO)N2C(=O)CN1CCOCC1 | > 10 µM (inactive)
22 | O=C(c1cccc(F)c1)N1C[C@@H]2[C@H](c3ccccc31)[C@H](CO)N2C(=O)C1CCOCC1 | > 10 µM (inactive)
23 | CCN1CC(=O)N2[C@H](CO)[C@@H](c3ccc(Br)cc3)[C@H]2C1 | > 10 µM (inactive)
24 | CCNC(=O)C[C@@H]1CC[C@H]2[C@@H](COC[C@@H](O)CN2C(=O)C2CC2)O1 | > 10 µM (inactive)
25 | O=C(C[C@@H]1CC[C@@H]2[C@H](COC[C@H](O)CN2CCC(F)(F)F)O1)NCC1CC1 | > 10 µM (inactive)

Row | SMILES | active concentration
26 | O=C(C[C@H]1CC[C@H]2[C@@H](COC[C@H](O)CN2C(=O)c2cccnc2)O1)NCc1ccccc1 | > 10 µM (inactive)
27 | COc1ccc2c3c([nH]c2c1)[C@@H](CO)N(C(=O)Nc1ccc(F)cc1)CC31CN(C(=O)c2ccccc2F)C1 | > 10 µM (inactive)
28 | O=C(C[C@@H]1CC[C@@H]2[C@H](COC[C@@H](O)CN2Cc2cccc(C(F)(F)F)c2)O1)NCc1ccccc1 | > 10 µM (inactive)
29 | C[C@H](O)C#Cc1ccc([C@@H]2[C@@H](CO)N3CCCCN(C(=O)c4ccc5c(c4)OCO5)C[C@H]23)cc1 | > 10 µM (inactive)
30 | O=C(c1ccccn1)N1CC(=O)N2[C@H](CO)[C@H](c3ccc(C4=CCCC4)cc3)[C@@H]2C1 | > 10 µM (inactive)
31 | CN(C)C(=O)C[C@@H]1CC[C@H]2[C@H](COc3ccc(NC(=O)c4ccc(F)cc4)cc3C(=O)N2C)O1 | > 10 µM (inactive)
32 | C[C@@H](O)C#Cc1ccc([C@@H]2[C@H](CO)N3CCCCN(C(=O)c4ccc5c(c4)OCO5)C[C@@H]23)cc1 | > 10 µM (inactive)
33 | COc1ccc(-c2ccccc2[C@H]2[C@@H](CO)N(C(=O)NC(C)C)[C@H]2C#N)cc1 | > 10 µM (inactive)
34 | CC=Cc1ccc2n(c1=O)C[C@@H]1[C@@H](CO)[C@H](C(=O)NC3CCC3)[C@H]2N1S(=O)(=O)c1cn(C)cn1 (mixture of isomers) | > 10 µM (inactive)
35 | COc1ccc2c3c([nH]c2c1)[C@@H](CO)N(C(=O)c1cccnc1)CC31CCN(C(=O)CN(C)C)CC1 | > 10 µM (inactive)
36 | CS(=O)(=O)N1C[C@H](O)COC[C@@H]2O[C@@H](CC(=O)NCc3ccc(-c4ccccc4)cc3)CC[C@H]21 | > 10 µM (inactive)
37 | N#C[C@@H]1[C@H](c2ccccc2C2=CCCCC2)[C@H](CO)N1C(=O)Nc1ccccc1F | > 10 µM (inactive)
38 | O=C(c1ccccc1F)N1CC(=O)N2[C@@H](CO)[C@@H](c3ccc(C#Cc4ccccc4)cc3)[C@@H]2C1 | > 10 µM (inactive)
39 | N#C[C@H]1[C@H](c2ccccc2-c2ccccc2F)[C@@H](CO)N1C(=O)Cc1ccccc1 | > 10 µM (inactive)
40 | O=C(C[C@H]1CC[C@H]2[C@@H](COC[C@@H](O)CN2CC2CC2)O1)NCc1ccc(Cl)cc1 | > 10 µM (inactive)
41 | O=C(C[C@H]1CC[C@@H]2[C@H](COC[C@@H](O)CN2C(=O)Nc2ccc(Cl)cc2)O1)NCC1CC1 | > 10 µM (inactive)
42 | Cc1ccc(NC(=O)C[C@H]2CC[C@H]3[C@@H](COc4ccc(NC(=O)C5CCC5)cc4C(=O)N3C)O2)cc1 | > 10 µM (inactive)
43 | CCS(=O)(=O)N1CC2(C1)CN(S(=O)(=O)c1ccccc1)[C@H](CO)c1c2c2ccc(OC)cc2n1C | > 10 µM (inactive)
44 | O=C(C[C@H]1CC[C@H]2[C@@H](COC[C@@H](O)CN2Cc2nccs2)O1)NCc1ccccc1 | > 10 µM (inactive)
45 | O=C(C[C@H]1CC[C@H]2[C@@H](COC[C@@H](O)CN2C(=O)c2ccccc2)O1)Nc1ccc(-c2ccccc2)cc1 | > 10 µM (inactive)
46 | CN1CCN(C(=O)C[C@@H]2CC[C@H]3[C@@H](COC[C@@H](O)CN3CC3CC3)O2)CC1 | > 10 µM (inactive)
47 | O=C(C[C@H]1CC[C@@H]2[C@H](COC[C@@H](O)CN2C(=O)C2CC2)O1)NCc1ccncc1 | > 10 µM (inactive)
48 | O=C(C1CCCCC1)N1CC2(C1)[C@@H](c1ccccc1)[C@H](CO)N2C(=O)c1cccnc1 | > 10 µM (inactive)
49 | CCN1CC(=O)N2[C@@H](CO)[C@@H](c3ccc(Br)cc3)[C@@H]2C1 | > 10 µM (inactive)
50 | O=C(c1cccc(F)c1)N1CCCCN2[C@H](CO)[C@@H](c3ccc(C#CC4(O)CCCC4)cc3)[C@H]2C1 | > 10 µM (inactive)

Source: PubChem BioAssay AID977613 (Broad Institute, 2014)
